# Patent US9409983B2, “Methods and compositions involving PBEF inhibitors for lung inflammation conditions and diseases” (The Board of Trustess of the University of Illinois, priority 2009, dated 2016)
# Tests used:
# [1] = test system: RENCA cells; details: cited from earlier work
# [2] = test system: human PBEF; test: In vitro PBEF silencing with siRNAs; format: cell-based
# Description: In vitro human PBEF stealth siRNAs were designed based on the human PBEF cDNA reference sequence (NM_005746.1) using the BLOCK-iTi RNAi Designer (Invitrogen, Carlsbad, Calif.). The siRNA sequence 1 (as reported in Ye et al. 2005 MVR w/@75% silencing) was custom synthesized from Invitrogen (cat#10620312_40993403, NM_005746); (5′-[…]-3′ SEQ ID NO:4) and scrambled controls (cat#10620312_40993404).
# Alternatively, small interfering RNA (siRNA) targeting human PBEF1 (NM_005746) was purchased as 4 ON-TARGETplus SMARTpool siRNA duplexes (catalog#L-004581-00) from Dharmacon (Lafayette, Colo.).
# [3] = test system: human PBEF; details: as reported in Ye et al. 2005; cited from earlier work
# [4] = test system: rat peritoneal neutrophils; test: Transmigration and chemotaxis assay (Transwell); format: cell-based; details: rhPBEF (10 ng/ul) or casein in lower chamber, up to 4 hours
# Procedure: Chemotaxis of rat peritoneal neutrophils (calcein-AM) across 3 μm polycarbonate filters was assessed in response to recombinant human PBEF/visfatin (rhPBEF, PeproTech, Rocky Hill, N.J.), or casein (positive control). (See Supplemental Methods for additional details).
# Neutrophils were collected from retired breeder male Harlan-Sprague Dawley rats by intraperitoneal injection of 2.5% casein (5 ml). The resulting peritoneal fluid was recovered by PBS peritoneal lavage after 18 hr, centrifuged and examined for total cell counts and cell differentiation. For chemotaxis assays, leukocytes were exposed to calcein-AM in the presence of plurionic acid for 1 hr at room temperature. The temperature was then elevated to 37° C. for 30 min to cleave the calcein AM thereby reducing the rate of calcein diffusion out of the cells. […] The receiving wells were assessed serially in a fluorescent plate reader with absorption at 494 nm and emission measured at 517 nm. Fluorescence was recorded at 5, 10, 15, 30 min and each subsequent 30 min period for up to 4 hr. Aliquots of known numbers of neutrophils were counted in separate wells at each time point to account for any quenching of the fluorescence over time.
molecule,measurement,setting,value
O=C(/C=C/c1cccnc1)NCCCCC1CCN(C(=O)c2ccccc2)CC1 [FK-866],toxicity compared with TNP-470 treatment,"[1]; doses of up to 6 mg/kg FK-866, TNP 470 30 mg/kg subcutaneously every other day",less toxic than treatment with TNP-470
same,doses with significant antitumor efficacy,"[1]; oral, twice daily, days 14 to 19 after tumor cell inoculation",≥ 10 mg/kg
"Invitrogen siRNA: human PBEF stealth siRNA, single sequence, custom synthesized from Invitrogen; 5′-CCACCCAACACAAGCAAAGUUUAUU-3′ SEQ ID NO:4 (Stealth siRNA from Invitrogen, modification pattern not given here)",downregulating PBEF protein expression,[2],effective
same,PBEF silencing,[3],75%
casein [reference compound],PMN migration across Transwell filters,[4],significant at all time points beginning at 30 minutes
